≈ marks a conversion by molar mass, not a printed value.
Assays:
A. fumigatus s 1008 = assay: In vitro MIC, NCCLS M38P broth method (RPMI 1640/MOPS pH7), Aspergillus fumigatus; type: cell-based; conditions: for MIC, A. fumigatus 1008: A. fumigatus strain 1008
Candida = assay: In vitro MIC, NCCLS M27A, Candida species; type: cell-based; parameters: MIC, Candida albicans 1.549 / MIC, Candida albicans Y-01-19 / MIC, C. krusei 766-1 / MIC, C. krusei Q. C / MIC, Candida tropicalis ATCC / MIC, C. glabrata 90030: unit not given beside the values; MIC, Candida albicans A 26 / MIC, C. parapsilosis Q. C.: unit not given here; conditions: for MIC, C. glabrata 90030: C. glabrata strain 90030; for MIC, C. krusei 766-1: C. krusei strain 766-1; for MIC, C. krusei Q. C: C. krusei strain Q. C; for MIC, C. parapsilosis Q. C.: C. parapsilosis strain Q. C.; for MIC, Candida albicans 1.549: Candida albicans strain 1.549; for MIC, Candida albicans A 26: Candida albicans strain A 26; for MIC, Candida albicans Y-01-19: Candida albicans strain Y-01-19
Cryptococcus neoformans = assay: In vitro MIC, NCCLS M27A, Cryptococcus neoformans; type: cell-based; parameters: MIC, C. neoformans I: unit not given beside the values; MIC, C. neoformans M 106: unit not given here; conditions: for MIC, C. neoformans I: C. neoformans strain I; for MIC, C. neoformans M 106: C. neoformans strain M 106
Histoplasma capsulatum = type: cell-based

| Compound | MIC, A. fumigatus 1008 (A. fumigatus s 1008) | MIC, C. glabrata 90030 (Candida) | MIC, C. krusei 766-1 (Candida) | MIC, C. krusei Q. C (Candida) | MIC, C. parapsilosis Q. C. (Candida) | MIC, Candida albicans 1.549 (Candida) | MIC, Candida albicans A 26 (Candida) | MIC, Candida albicans Y-01-19 (Candida) | MIC, Candida tropicalis ATCC (Candida) | MIC, C. neoformans I (Cryptococcus neoformans) | MIC, C. neoformans M 106 (Cryptococcus neoformans) | MIC, H. capsulatum (Histoplasma capsulatum) | melting point | MIC (υg/ml) (A. fumigatus s 1008) (A. fumigatus s 1008) |
| --- | --- | --- | --- | --- | --- | --- | --- | --- | --- | --- | --- | --- | --- | --- |
| O=c1n(-c2ccc(N3CCN(c4ccc(Cl)c(Cl)c4)CC3)cc2)cnn1CC(O)(Cn1cncn1)c1ccc(F)cc1F (stereo not shown) [Compound 37, 2-[2-(2,4-Difluorophenyl)-2-hydroxy-3-(1H-1,2,4-triazol-1-yl)propyl]-4-{4-[4-(3,4-dichlorophenyl)-1-piperazinyl]phenyl}-3-(2H,4H)-1,2,4-triazolone] | >16 | 0.12 | 0.25 | 0.06 | <0.03 | 0.06 | <0.03 | 0.06 | <0.03 | <0.03 | <0.03 | < 0.03 µg/mL | 194 to 196 °C | – |
| Nc1ccc(N2CCN(c3ccc(-n4cnn(CC(O)(Cn5cncn5)c5ccc(F)cc5F)c4=O)cc3)CC2)c(N)c1 (stereo not shown) [Compound 38, 2-[2-(2,4-Difluorophenyl)-2-hydroxy-3-(1H-1,2,4-triazol-1-yl)propyl]-4-{4-[4-(2,4-diaminophenyl)-1-piperazinyl]phenyl}-3-(2H,4H)-1,2,4-triazolone] | >16 | >16 | >16 | >16 | >16 | >16 | >16 | >16 | >16 | >16 | >16 | > 16 µg/mL | 215 to 222 °C | – |
| Cc1ccc(N2CCN(c3ccc(-n4cnn(CC(O)(Cn5cncn5)c5ccc(F)cc5F)c4=O)cc3)CC2)cc1 (stereo not shown) [Compound 39, 2-[2-(2,4-Difluorophenyl)-2-hydroxy-3-(1H-1,2,4-triazol-1-yl)propyl]-4-{4-[4-(4-methylphenyl)-1-piperazinyl]phenyl}-3-(2H,4H)-1,2,4-triazolone] | 6.25 | 0.10 | 0.80 | 0.10 | <0.02 | 0.10 | <0.02 | 0.02 | 6.25 | <0.02 | 0.05 | 0.05 µg/mL (≈ 0.0873 µM) | 146 to 148 °C | – |
| O=c1n(-c2ccc(N3CCN(c4ccc([N+](=O)[O-])cc4[N+](=O)[O-])CC3)cc2)cnn1CC(O)(Cn1cncn1)c1ccc(F)cc1F (stereo not shown) [Compound 40, 2-[2-(2,4-Difluorophenyl)-2-hydroxy-3-(1H-1,2,4-triazol-1-yl)propyl]-4-{4-[4-(2,4-dinitrophenyl)-1-piperazinyl]phenyl}-3-(2H,4H)-1,2,4-triazolone] | 1.56 | 0.80 | 6.25 | 1.56 | 0.05 | 0.40 | <0.02 | 0.40 | 1.56 | 0.05 | 0.20 | 0.05 µg/mL (≈ 0.0771 µM) | 120 to 123 °C | – |
| COc1ccc(N2CCN(c3ccc(-n4cnn(CC(O)(Cn5cncn5)c5ccc(F)cc5F)c4=O)cc3)CC2)cc1 (stereo not shown) [Compound 41, 2-[2-(2,4-Difluorophenyl)-2-hydroxy-3-(1H-1,2,4-triazol-1-yl)propyl]-4-{4-[4-(4-methoxyphenyl)-1-piperazinyl]phenyl}-3-(2H,4H)-1,2,4-triazolone] | 6.25 | 0.80 | 1.56 | 0.40 | <0.02 | 0.05 | <0.02 | 0.10 | 3.12 | 0.10 | 0.40 | < 0.02 µg/mL | 183 to 186 °C | – |
| COc1ccccc1N1CCN(c2ccc(-n3cnn(CC(O)(Cn4cncn4)c4ccc(F)cc4F)c3=O)cc2)CC1 (stereo not shown) [Compound 42, 2-[2-(2,4-Difluorophenyl)-2-hydroxy-3-(1H-1,2,4-triazol-1-yl)propyl]-4-{4-[4-(2-methoxyphenyl)-1-piperazinyl]phenyl}-3-(2H,4H)-1,2,4-triazolone] | >12.5 | 1.56 | 3.12 | 1.56 | <0.02 | 0.40 | 0.05 | 12.50 | 12.50 | 0.20 | 0.80 | 0.05 µg/mL (≈ 0.0849 µM) | 95 to 97 °C | – |
| O=c1n(-c2ccc(N3CCN(c4ccc(F)cc4)CC3)cc2)cnn1CC(O)(Cn1cncn1)c1ccc(F)cc1F (stereo not shown) [Compound 43, 2-[2-(2,4-Difluorophenyl)-2-hydroxy-3-(1H-1,2,4-triazol-1-yl)propyl]-4-{4-[4-(4-fluorophenyl)-1-piperazinyl]phenyl}-3-(2H,4H)-1,2,4-triazolone] | >12.5 | 0.40 | 1.56 | 0.20 | <0.02 | <0.02 | <0.02 | 0.05 | 12.50 | 0.05 | 0.05 | < 0.02 µg/mL | 173 to 177 °C | – |
| O=c1n(-c2ccc(N3CCN(c4ccc(O)cc4)CC3)cc2)cnn1CC(O)(Cn1cncn1)c1ccc(F)cc1F (stereo not shown) [Compound 44, 2-[2-(2,4-Difluorophenyl)-2-hydroxy-3-(1H-1,2,4-triazol-1-yl)propyl]-4-{4-[4-(4-hydroxyphenyl)-1-piperazinyl]phenyl}-3-(2H,4H)-1,2,4-triazolone] | >12.5 | 6.25 | >12.5 | 6.25 | 0.20 | >12.5 | >12.5 | 1.56 | 6.25 | 1.56 | 3.12 | 1.56 µg/mL (≈ 2.71 µM) | 246 to 248 °C | – |
| O=c1n(-c2ccc(N3CCN(c4ccc(Cl)cc4)CC3)cc2)cnn1CC(O)(Cn1cncn1)c1ccc(F)cc1F (stereo not shown) [Compound 47, 2-[2-(2,4-Difluorophenyl)-2-hydroxy-3-(1H-1,2,4-triazol-1-yl)propyl]-4-{4-[4-(4-chlorophenyl)-1-piperazinyl]phenyl}-3-(2H,4H)-1,2,4-triazolone] | 3.12 | 3.12 | 1.56 | 1.56 | <0.02 | 0.20 | <0.02 | 0.20 | <0.02 | <0.02 | 0.40 | 0.05 µg/mL (≈ 0.0843 µM) | 207 to 208 °C | – |
| Cc1ccc(Cl)cc1N1CCN(c2ccc(-n3cnn(CC(O)(Cn4cncn4)c4ccc(F)cc4F)c3=O)cc2)CC1 (stereo not shown) [Compound 48, 2-[2-(2,4-Difluorophenyl)-2-hydroxy-3-(1H-1,2,4-triazol-1-yl)propyl]-4-{4-[4-(5-chloro-2-methylphenyl)-1-piperazinyl]phenyl}-3-(2H,4H)-1,2,4-triazolone] | >16 | 1.00 | 1.00 | 0.50 | 0.12 | 0.50 | <0.03 | 0.50 | <0.03 | <0.03 | 0.06 | 0.25 µg/mL (≈ 0.412 µM) | 82 to 87 °C | – |
| COC(=O)Cc1ccc(N2CCN(c3ccc(-n4cnn(CC(O)(Cn5cncn5)c5ccc(F)cc5F)c4=O)cc3)CC2)cc1 (stereo not shown) [Compound 93, 2-[2-(2,4-Difluorophenyl)-2-hydroxy-3-(1H-1,2,4-triazol-1-yl)propyl]-4-{4-[4-(4-(2-methoxy-2-oxoethyl)phenyl)-1-piperazinyl]phenyl}-3-(2H,4H)-1,2,4-triazolone] | – | – | – | – | – | – | – | – | – | – | – | – | 66 to 69 °C | >12.5 µg/mL |
| O=C(O)CCc1ccc(N2CCN(c3ccc(-n4cnn(CC(O)(Cn5cncn5)c5ccc(F)cc5F)c4=O)cc3)CC2)cc1 (stereo not shown) [Compound 94, 2-[2-(2,4-Difluorophenyl)-2-hydroxy-3-(1H-1,2,4-triazol-1-yl)propyl]-4-{4-[4-(4-(carboxyethyl)-phenyl)-1-piperazinyl]phenyl}-3-(2H,4H)-1,2,4-triazolone] | – | – | – | – | – | – | – | – | – | – | – | – | 235 to 239 °C | >12.5 µg/mL |
| O=c1n(-c2ccc(N3CCN(c4ccc(CCO)cc4)CC3)cc2)cnn1CC(O)(Cn1cncn1)c1ccc(F)cc1F (stereo not shown) [Compound 95, 2-[2-(2,4-Difluorophenyl)-2-hydroxy-3-(1H-1,2,4-triazol-1-yl)propyl]-4-{4-[4-(4-(2-hydroxyethyl)phenyl)-1-piperazinyl]phenyl}-3-(2H,4H)-1,2,4-triazolone] | – | – | – | – | – | – | – | – | – | – | – | – | 114 to 115 °C | >12.5 µg/mL |

Reference: patent US6670363B1, “Azole compounds as therapeutic agents for fungal infections” (Ranbaxy Laboratories Limited, priority 2000, dated 2003)
